We go through 2 compounds from patent US9920069B2, “Compounds for treatment of fluoroquinolone-resistant bacteria” (The Board of Trustees of the University of Illinois, priority 2014, dated 2018).

One assay concerns Enterococcus ATCC 29212. The assay is described as follows: organism not typed. It is filed as cell-based, E. faecalis.
The test system of the next assay is Enterococcus ATCC 19433. Briefly: organism not typed. It is filed as cell-based, E. faecalis.
Assay [1] deals with low level CIP resistant strains of S. aureus ATCC 29213 (ParC mutation). The assay is described as follows: microbe, parasite or virus in culture. It is filed as cell-based. To be noted: Staphylococcus aureus, ATCC29213.
For the next assay, the system named is A. baumannii KB349. The settings on record: starred: previously determined; cited from earlier work.
The test system of the next assay is A. baumannii KB304. The settings on record: starred: previously determined; cited from earlier work.
In assay [2] the test system is MRSA clinical isolate SAU.3017. The protocol: (§1) Susceptibility testing was performed in triplicate using the microdilution broth method as outlined by the Clinical and Laboratory Standards Institute CLSI^52. MH broth was used.
Assay [3] has as its system MRSA clinical isolate SAU.1118. The assay is described as follows: MIC, microdilution broth. The settings on record: Staphylococcus aureus. It is filed as cell-based, S. aureus. The protocol: as §1
For orientation: Broth dilution looks for growth in wells or tubes with falling amounts of substance.

Assay [4] concerns MRSA clinical isolate SAU.2996. The assay is described as follows: MIC, microdilution broth. It is filed as cell-based, S. aureus. The protocol:
as §1

The subject of assay [5] is MRSA clinical isolate SAU.3021. The assay is described as follows: MIC, microdilution broth. It is filed as cell-based, S. aureus. The protocol: as §1
The subject of assay [6] is MRSA clinical isolate SAU.3024. The assay is described as follows: MIC, microdilution broth. It is filed as cell-based, S. aureus. The settings on record: Staphylococcus aureus. The protocol:
as §1

In assay [7] the test system is MRSA clinical isolate SAU.3025. The assay is described as follows: MIC, microdilution broth. The settings on record: Staphylococcus aureus. It is filed as cell-based, S. aureus. On the procedure:
as §1

Assay [8] has as its system MRSA clinical isolate SAU.3026. Briefly: MIC, microdilution broth. It is filed as cell-based, S. aureus. On the procedure: as §1
Assay [9] has as its system MRSA clinical isolate SAU.419. Briefly: MIC, microdilution broth. It is filed as cell-based, S. aureus. On the procedure:
as §1

Assay [10] has as its system MRSA clinical isolate SAU.42. Briefly: MIC, microdilution broth. It is filed as cell-based, S. aureus. The settings on record: Staphylococcus aureus. The protocol: as §1
Assay [11] has as its system MRSA clinical isolate SAU.446. Briefly: MIC, microdilution broth. It is filed as cell-based, S. aureus. To be noted: Staphylococcus aureus. On the procedure:
as §1

The test system of assay [12] is MRSA clinical isolate SAU.447. Briefly: MIC, microdilution broth. It is filed as cell-based, S. aureus. To be noted: Staphylococcus aureus. The protocol: as §1
The subject of assay [13] is MRSA clinical isolate SAU.555. Briefly: MIC, microdilution broth. To be noted: Staphylococcus aureus. It is filed as cell-based, S. aureus. On the procedure:
as §1

Assay [14] relates to MRSA clinical isolate SAU.669. The assay is described as follows: MIC, microdilution broth. It is filed as cell-based, S. aureus. The settings on record: Staphylococcus aureus. On the procedure: as §1
In assay [15] the test system is MRSA clinical isolate SAU.846. The assay is described as follows: MIC, microdilution broth. It is filed as cell-based, S. aureus. On the procedure:
as §1

In assay [16] the test system is MRSA clinical isolate SAU.489. Briefly: microbe, parasite or virus in culture. It is filed as cell-based, S. aureus. To be noted: Staphylococcus aureus, read-out: MIC. The protocol: as §1
Assay [17] concerns MRSA clinical isolate SAU.491. Briefly: microbe, parasite or virus in culture. It is filed as cell-based, S. aureus. The settings on record: Staphylococcus aureus, read-out: MIC. On the procedure: as §1
In assay [18] the test system is MRSA clinical isolate SAU.492. Briefly: microbe, parasite or virus in culture. It is filed as cell-based, S. aureus. The settings on record: Staphylococcus aureus, read-out: MIC. On the procedure: as §1
Assay [19] relates to MRSA clinical isolate SAU.493. The assay is described as follows: microbe, parasite or virus in culture. To be noted: Staphylococcus aureus, read-out: MIC. It is filed as cell-based, S. aureus. On the procedure: as §1
Assay [20] has as its system MRSA clinical isolate SAU.494. Briefly: microbe, parasite or virus in culture. It is filed as cell-based, S. aureus. The settings on record: Staphylococcus aureus, read-out: MIC. On the procedure:
as §1

For assay [21], the system named is MRSA clinical isolate SAU.495. Briefly: microbe, parasite or virus in culture. It is filed as cell-based, S. aureus. To be noted: Staphylococcus aureus, read-out: MIC. On the procedure: as §1
Assay [22] has as its system MRSA clinical isolate SAU.496. Briefly: microbe, parasite or virus in culture. The settings on record: Staphylococcus aureus, read-out: MIC. It is filed as cell-based, S. aureus. On the procedure: as §1
The subject of assay [23] is MRSA clinical isolate SAU.709. Briefly: microbe, parasite or virus in culture. It is filed as cell-based, S. aureus. To be noted: Staphylococcus aureus, read-out: MIC. On the procedure: as §1
The subject of assay [24] is MRSA clinical isolate SAU.710. The assay is described as follows: microbe, parasite or virus in culture. It is filed as cell-based, S. aureus. To be noted: Staphylococcus aureus, read-out: MIC. The protocol:
as §1

Values after ≈ are worked out from the molar mass of the structure shown. Marks after values point to notes of the source that are not given here.

For the compound `O=C(O)c1cn(C2CC2)c2cc(N3CCNCC3)c(F)cc2c1=O` [CIP, ciprofloxacin, reference compound], the MIC was 0.5 to 2 µg/mL (≈ 1.51 to 6.04 µM) against Enterococcus ATCC 29212, 2 µg/mL (≈ 6.04 µM) in the assay with Enterococcus ATCC 19433 and 4 to 8 µg/mL (≈ 12.1 to 24.1 µM) in assay [1]. Further, the “CIP (S/I/R)” value with Enterococcus ATCC 29212 (ATCC 29212) and with Enterococcus ATCC 19433 (ATCC 19433) was “S (sensitive (S) if it had an MIC≤4 μg mL^−1)” each time. Further, the “CIP MIC” value in the assay on A. baumannii KB349 is >32* μg mL^−1; with A. baumannii KB304, 24* ^ μg mL^−1.
For the compound `CC1(C)S[C@@H]2[C@H](NC(=O)[C@H](N)c3ccccc3)C(=O)N2[C@H]1C(=O)O` [Amp, Ampicillin, reference compound], the MIC was greater than 64 µg/mL in [2]; greater than 64 µg/mL in [3]; greater than 64 µg/mL in [4]; greater than 64 µg/mL in assay [5]; greater than 64 µg/mL in [6]; 64 µg/mL (≈ 183 µM) in assay [7]. Further, the MIC in [8] is greater than 64 µg/mL; in assay [9], greater than 64 µg/mL; in assay [10] it was 2 µg/mL (≈ 5.72 µM); in assay [11] it was greater than 64 µg/mL; in assay [12] it was greater than 64 µg/mL; in assay [13], greater than 64 µg/mL. Further, the MIC in assay [14], in [15], in [16], in assay [17], in assay [18] and in [19] was greater than 64 µg/mL in each case. The MIC in [20], in [21], in assay [22], in assay [23] and in assay [24] was greater than 64 µg/mL each time.
